# Reference: patent US20090012047A1, “Crystalline forms of ibandronate sodium” (priority 2006, published 2009)
# Assay: Storage stability of crystalline forms at room temperature for two years (form by XRD)
# Type: physicochemical
# Conditions: for Crystal form after 2 years: 1 g sample in closed glass bottle, room temperature, form by XRD, monosodium salt
# Protocol: The x-ray powder diffraction was performed on Scintag X-ray powder diffractometer model X'TRA with a solid state detector at room temperature. Copper radiation of 1.5418 Å was used. The sample holder was a round standard aluminum sample holder with rough zero background. The scanning parameters were range: 2-40 degrees two-theta; scan mode: continuous scan; step size: 0.05 degrees; and at a rate of 5 degrees/minute.
# 1 g samples of crystalline ibandronate sodium Forms K1, D, J, H, E, Q2, QQ, K3, Q4, L, G, C, S, R, Q3, K, and Q6, as well as amorphous form were each placed into separate glass bottles, which were then closed and stored at room temperature for 2 years.
SMILES,Crystal form after 2 years,Crystal form after 2 years (listed as H),"Stability of crystalline form on storage (about 15° C. to about 30° C. for more than about 3 months, as described in Example 7)",Retention of crystalline form after storage (room temperature for two years)
"CCCCCN(C)CCC(O)(P(=O)([O-])O)P(=O)(O)O.[Na+] [Form S, (1-hydroxy-3-(N-methyl-N-pentylamino)propylidene) bisphosphonic acid monosodium salt]","Q plus additional XRD reflections at 10.4,",,,
"CCCCCN(C)CCC(O)(P(=O)([O-])O)P(=O)(O)O.[Na+] [Form H, (1-hydroxy-3-(N-methyl-N-pentylamino)propylidene) bisphosphonic acid monosodium salt]",mixture of crystalline ibandronate sodium Forms H and V,H + V,,
"CCCCCN(C)CCC(O)(P(=O)([O-])O)P(=O)(O)O.[Na+] [Form D, (1-hydroxy-3-(N-methyl-N-pentylamino)propylidene) bisphosphonic acid monosodium salt]",,,stable,maintained their crystalline form
"CCCCCN(C)CCC(O)(P(=O)([O-])O)P(=O)(O)O.[Na+] [Form C, (1-hydroxy-3-(N-methyl-N-pentylamino)propylidene) bisphosphonic acid monosodium salt]",Form V,,,
